{"source": "ChEMBL document CHEMBL6178017", "about": "“Intercepting the Downstream of the Estrogen Receptor Signaling Pathway: Discovery of a Potent and Efficient SRC-3 PROTAC Degrader for Overcoming Endocrine Resistance Breast Cancer” (J Med Chem, 2025)", "key": {"[1]": {"experiment": "Antitumor activity against tamoxifen-resistant human LCC2 cells xenografted in Balb/c mouse assessed as inhibition of tumor growth at 5 uM/Kg, ip administered once every 2 days for 23 days", "type": "functional, Tamoxifen-resistant LCC2 cell", "conditions": "time 23 day, at 5 µmol/kg"}, "[2]": {"experiment": "AUC(0 to infinity) in Balb/c mouse at 2 mg/kg, iv by LC-MS/MS analysis", "type": "ADME, organism-based", "conditions": "in vivo"}, "[3]": {"biological_target": "T1, Protein cereblon/Nuclear receptor coactivator 3 (Homo sapiens, UniProt Q9Y6Q9+Q96SW2)", "experiment": "PROTAC activity at CRBN/SRC-3 in human MCF7 cells overexpressing EGFR assessed as downregulation of ER-alpha level at 0.01 to 10 uM measured after 36 hrs by immunoblot analysis", "type": "cell-based", "conditions": "dose 0.01-10 µM"}, "[4]": {"experiment": "Induction of apoptosis in tamoxifen-resistant human LCC2 cells assessed as viable cells at 1 uM incubated for 48 hrs by AnnexinV-FITC/PI staining based flow cytometry (reference value: 88.09%)", "type": "functional", "conditions": "Tamoxifen-resistant LCC2 cell, read-out: Activity"}, "[5]": {"test_system": "MCF7", "experiment": "Induction of apoptosis in human MCF7 cells assessed as increase in early apoptotic cells at 1 to 20 uM incubated for 48 hrs by AnnexinV-FITC/PI staining based flow cytometry", "type": "functional, cell-based", "conditions": "dose 1-20 µM"}, "[6]": {"experiment": "AUC(0 to t) in Balb/c mouse at 2 mg/kg, iv by LC-MS/MS analysis", "type": "ADME, organism-based", "conditions": "in vivo"}, "[7]": {"experiment": "Volume of distribution at steady state in Balb/c mouse at 2 mg/kg, iv by LC-MS/MS analysis", "type": "ADME, organism-based", "conditions": "in vivo, read-out: Vdss"}, "[8]": {"biological_target": "T1, Protein cereblon/Nuclear receptor coactivator 3", "experiment": "PROTAC activity at CRBN/SRC-3 in tamoxifen-resistant human LCC2 cells assessed as maximal induction of SRC-3 degradation at 1 uM incubated for 36 hrs by immunoblot analysis", "type": "cell-based", "conditions": "Tamoxifen-resistant LCC2 cell"}, "[9]": {"biological_target": "Nuclear receptor coactivator 3 (Homo sapiens) (UniProt Q9Y6Q9)", "sequence (Q9Y6Q9 2-1424 limits assumed)": "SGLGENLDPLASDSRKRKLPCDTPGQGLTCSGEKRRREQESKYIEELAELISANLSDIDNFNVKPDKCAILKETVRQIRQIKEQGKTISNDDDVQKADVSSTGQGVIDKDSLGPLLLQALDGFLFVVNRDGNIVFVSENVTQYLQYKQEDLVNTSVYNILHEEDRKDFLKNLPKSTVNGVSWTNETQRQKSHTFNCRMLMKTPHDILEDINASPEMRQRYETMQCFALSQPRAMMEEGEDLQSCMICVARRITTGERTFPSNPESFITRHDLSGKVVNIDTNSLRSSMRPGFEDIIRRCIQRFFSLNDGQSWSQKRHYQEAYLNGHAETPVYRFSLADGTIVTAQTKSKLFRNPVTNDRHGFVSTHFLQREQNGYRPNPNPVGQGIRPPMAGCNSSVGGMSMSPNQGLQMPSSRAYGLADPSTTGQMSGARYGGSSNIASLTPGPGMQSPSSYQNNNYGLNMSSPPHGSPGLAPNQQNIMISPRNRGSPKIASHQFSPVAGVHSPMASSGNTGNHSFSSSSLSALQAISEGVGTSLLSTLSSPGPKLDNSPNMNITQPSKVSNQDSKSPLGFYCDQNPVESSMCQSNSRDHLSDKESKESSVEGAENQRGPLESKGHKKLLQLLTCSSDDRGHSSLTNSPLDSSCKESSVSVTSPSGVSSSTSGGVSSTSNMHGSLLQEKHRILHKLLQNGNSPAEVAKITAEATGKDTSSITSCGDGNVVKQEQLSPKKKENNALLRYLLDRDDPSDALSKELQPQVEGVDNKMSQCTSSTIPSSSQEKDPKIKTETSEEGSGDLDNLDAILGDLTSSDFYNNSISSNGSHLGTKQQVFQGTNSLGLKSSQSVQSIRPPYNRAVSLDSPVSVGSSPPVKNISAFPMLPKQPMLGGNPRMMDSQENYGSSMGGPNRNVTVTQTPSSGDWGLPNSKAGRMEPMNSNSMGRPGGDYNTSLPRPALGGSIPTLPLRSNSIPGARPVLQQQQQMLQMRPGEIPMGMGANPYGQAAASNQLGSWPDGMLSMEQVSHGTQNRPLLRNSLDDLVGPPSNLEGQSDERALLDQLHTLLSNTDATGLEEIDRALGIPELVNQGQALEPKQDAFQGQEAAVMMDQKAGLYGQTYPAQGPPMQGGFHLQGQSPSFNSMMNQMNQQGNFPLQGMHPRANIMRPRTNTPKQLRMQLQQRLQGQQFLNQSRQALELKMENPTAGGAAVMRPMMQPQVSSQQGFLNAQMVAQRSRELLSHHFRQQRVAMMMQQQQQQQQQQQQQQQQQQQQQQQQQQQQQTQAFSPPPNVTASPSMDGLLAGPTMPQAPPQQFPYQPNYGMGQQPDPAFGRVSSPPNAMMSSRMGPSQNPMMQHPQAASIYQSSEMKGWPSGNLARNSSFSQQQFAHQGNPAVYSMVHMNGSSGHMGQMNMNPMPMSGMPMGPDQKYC", "experiment": "Binding affinity to SRC-3 in human MCF7 cells assessed as increase in thermal stability of the protein at 1 uM incubated for 6 hrs followed by exposure to higher temperatures for 5 mins by CETSA analysis", "type": "cell-based", "conditions": "time 365.0 min"}, "[10]": {"experiment": "Induction of cell cycle arrest in tamoxifen-resistant human LCC2 cells assessed as accumulation of cells at S phase at 5 uM incubated for 48 hrs by propidium iodide staining based flow cytometry (reference value: 9.72%)", "type": "functional"}, "[11]": {"experiment": "Toxicity against Balb/c mouse xenografted with tamoxifen-resistant human LCC2 cells assessed as effect on body weight at 3 to 5 uM/Kg, ip administered once every 2 days for 23 days", "type": "organism-based", "conditions": "in vivo, 552 h, dose 3-5 µM/Kg, time 23 day"}, "[12]": {"experiment": "Induction of apoptosis in tamoxifen-resistant human LCC2 cells assessed as necrotic cells at 20 uM incubated for 48 hrs by AnnexinV-FITC/PI staining based flow cytometry (reference value: 1.16%)", "type": "functional, Tamoxifen-resistant LCC2 cell"}, "[13]": {"experiment": "AUC (0 to t) in Balb/c mouse at 4 mg/kg, ip by LC-MS/MS analysis", "type": "ADME, organism-based", "conditions": "in vivo"}, "[14]": {"biological_target": "T1, Protein cereblon/Nuclear receptor coactivator 3", "experiment": "Binding affinity to CRBN/SRC-3 in human MCF7 cells assessed as CRBN/compound/SRC-3 ternary complex formation by measuring increase in yellow fluorescence intensity at 10 uM incubated for 6 hrs by immunofluorescence analysis", "type": "cell-based"}, "[15]": {"experiment": "Induction of apoptosis in tamoxifen-resistant human LCC2 cells assessed as viable cells at 20 uM incubated for 48 hrs by AnnexinV-FITC/PI staining based flow cytometry (reference value: 88.09%)", "type": "functional", "conditions": "Tamoxifen-resistant LCC2 cell, read-out: Activity"}, "[16]": {"biological_target": "Protein cereblon/Eukaryotic peptide chain release factor GTP-binding subunit ERF3A (Homo sapiens) (UniProt Q96SW2+P15170)", "sequence (P15170 whole entry, looked up)": "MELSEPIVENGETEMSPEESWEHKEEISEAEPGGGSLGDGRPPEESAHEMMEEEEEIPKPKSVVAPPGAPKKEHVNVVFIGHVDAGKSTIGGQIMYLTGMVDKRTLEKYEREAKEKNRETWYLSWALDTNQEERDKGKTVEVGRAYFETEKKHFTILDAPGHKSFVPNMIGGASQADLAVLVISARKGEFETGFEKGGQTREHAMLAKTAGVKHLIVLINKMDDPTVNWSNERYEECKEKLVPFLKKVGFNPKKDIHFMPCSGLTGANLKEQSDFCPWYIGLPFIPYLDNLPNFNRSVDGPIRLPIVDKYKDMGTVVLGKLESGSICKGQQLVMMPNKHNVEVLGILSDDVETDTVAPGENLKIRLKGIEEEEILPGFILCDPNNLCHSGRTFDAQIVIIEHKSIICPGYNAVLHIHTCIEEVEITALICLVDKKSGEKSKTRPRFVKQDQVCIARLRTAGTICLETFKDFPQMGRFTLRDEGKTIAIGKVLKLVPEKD", "sequence (Q96SW2 whole entry, looked up)": "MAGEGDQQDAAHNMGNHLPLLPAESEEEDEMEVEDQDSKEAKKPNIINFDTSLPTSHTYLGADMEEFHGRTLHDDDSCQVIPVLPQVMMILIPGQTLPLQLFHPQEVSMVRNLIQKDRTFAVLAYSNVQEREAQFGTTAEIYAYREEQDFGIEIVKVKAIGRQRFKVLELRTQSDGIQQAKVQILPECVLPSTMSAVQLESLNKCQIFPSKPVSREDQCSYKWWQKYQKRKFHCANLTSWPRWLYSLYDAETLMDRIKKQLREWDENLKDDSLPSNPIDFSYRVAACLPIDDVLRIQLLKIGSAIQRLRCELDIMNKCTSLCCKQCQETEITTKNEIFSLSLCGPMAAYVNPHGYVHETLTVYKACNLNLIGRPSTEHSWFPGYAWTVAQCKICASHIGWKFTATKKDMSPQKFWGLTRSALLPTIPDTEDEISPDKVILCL", "experiment": "PROTAC activity at CRBN/GSPT1-alpha in tamoxifen-resistant human LCC2 cells assessed as degradation of GSPT1 at 10 uM measured after 36 hrs by diaPASEF-based quantitative proteomics analysis", "conditions": "Tamoxifen-resistant LCC2 cell"}, "[17]": {"experiment": "Hepatic extraction ratio in human liver microsomes in presence of NADPH by LC-MS/MS analysis", "type": "ADME, Microsome", "conditions": "read-out: ERH"}, "[18]": {"experiment": "Half life in human liver microsomes in presence of NADPH by LC-MS/MS analysis", "type": "ADME, Microsome"}, "[19]": {"experiment": "Toxicity against Balb/c mouse xenografted with tamoxifen-resistant human LCC2 cells assessed as effect on heart pathological changes at 3 to 5 uM/Kg, ip administered once every 2 days for 23 days and measured on day 25 by Hematoxylin-Eosin based […] staining analysis", "type": "organism-based", "conditions": "in vivo, 600 h, dose 3-5 µM/Kg, time 25 day"}, "[20]": {"biological_target": "T1, Protein cereblon/Nuclear receptor coactivator 3", "experiment": "PROTAC activity at CRBN/SRC-3 in tamoxifen-resistant human LCC2 cells assessed as induction of SRC-3 degradation at 1 uM preincubated with CRBN ligand-pomolidomide for 2 hrs followed by incubation with compound and measured after 36 hrs by immunoblot analysis", "type": "cell-based", "conditions": "Tamoxifen-resistant LCC2 cell"}, "[21]": {"biological_target": "T1, Protein cereblon/Nuclear receptor coactivator 3", "experiment": "PROTAC activity at CRBN/SRC-3 in human MCF7 cells assessed as induction of SRC-3 degradation incubated for 36 hrs by immunoblot analysis", "type": "cell-based"}, "[22]": {"test_system": "Mus musculus", "experiment": "In vivo PROTAC activity at CRBN/SRC-3 in Balb/c mouse xenografted with tamoxifen-resistant human LCC2 cells assessed as downregulation of ER-alpha protein level in tumor tissues at 5 uM/Kg, ip administered once every 2 days for 23 days and measured on day 25 by western blot analysis", "type": "functional, organism-based", "conditions": "time 25.0 day"}, "[23]": {"biological_target": "T1, Protein cereblon/Nuclear receptor coactivator 3", "experiment": "PROTAC activity at CRBN/SRC-3 in tamoxifen-resistant human LCC2 cells assessed as induction of ER-alpha degradation at 5 uM incubated for 24 hrs by immunoblot analysis", "type": "cell-based", "conditions": "Tamoxifen-resistant LCC2 cell"}, "[24]": {"test_system": "Mus musculus", "experiment": "In vivo PROTAC activity at CRBN/SRC-3 in Balb/c mouse xenografted with tamoxifen-resistant human LCC2 cells assessed as induction of SRC-3 degradation in tumor tissues at 3 uM/Kg, ip administered once every 2 days for 23 days and measured on day 25 by western blot analysis", "type": "functional, organism-based", "conditions": "time 25.0 day"}, "[25]": {"experiment": "Half life in Balb/c mouse at 2 mg/kg, iv by LC-MS/MS analysis", "type": "ADME, organism-based", "conditions": "in vivo"}, "[26]": {"experiment": "Toxicity against Balb/c mouse xenografted with tamoxifen-resistant human LCC2 cells assessed as effect on lung pathological changes at 3 to 5 uM/Kg, ip administered once every 2 days for 23 days and measured on day 25 by Hematoxylin-Eosin based […] staining analysis", "type": "organism-based", "conditions": "in vivo, 600 h, dose 3-5 µM/Kg, time 25 day"}, "[27]": {"test_system": "Tamoxifen-resistant LCC2 cell", "experiment": "Upregulation of SRC3 mRNA expression in tamoxifen-resistant human LCC2 cells at 0.01 to 10 uM incubated for 36 hrs by qRT-PCR analysis", "type": "functional, cell-based", "conditions": "dose 0.01-10 µM"}, "[28]": {"biological_target": "T1, Protein cereblon/Nuclear receptor coactivator 3", "experiment": "PROTAC activity at CRBN/SRC-3 in tamoxifen-resistant human LCC2 cells assessed as induction of SRC-3 degradation at 1 uM preincubated with SI-2 for 2 hrs followed by incubation with compound and measured after 36 hrs by immunoblot analysis", "type": "cell-based", "conditions": "Tamoxifen-resistant LCC2 cell"}, "[29]": {"biological_target": "T1, Protein cereblon/Nuclear receptor coactivator 3", "experiment": "PROTAC activity at CRBN/SRC-3 in tamoxifen-resistant human LCC2 cells assessed as degradation of ER-alpha by measuring downregulation of ER-alpha protein level at 10 uM measured after 36 hrs by diaPASEF-based quantitative proteomics analysis", "conditions": "Tamoxifen-resistant LCC2 cell"}, "[30]": {"biological_target": "T1, Protein cereblon/Nuclear receptor coactivator 3", "experiment": "PROTAC activity at CRBN/SRC-3 in human MCF7 assessed as induction of ER-alpha degradation at 0.1 to 10 uM incubated for 24 hrs by immunoblot analysis", "type": "cell-based", "conditions": "dose 0.1-10 µM"}}, "note": "The source made the active and inactive calls. The calls are words filed in the database; no cut-off is given here."}
{"smiles": "C/C(=N\\Nc1nc2ccccc2n1C1CN(C2CCN(c3cccc4c3C(=O)N(C3CCC(=O)NC3=O)C4=O)CC2)C1)c1ccccn1", "note": "(stereo not given)", "values": [{"measurement": "TGI", "setting": "[1]", "result": 54, "unit": "%"}, {"measurement": "AUC(0-inf)", "setting": "[2]", "result": 367, "unit": "ng·h/mL"}, {"measurement": "Activity", "setting": "[3]", "result": "Active"}, {"measurement": "viability at 1 µM", "setting": "[4]", "result": 51.4, "unit": "%"}, {"measurement": "Activity", "setting": "[5]", "result": "Active"}, {"measurement": "AUC(0-t)", "setting": "[6]", "result": 318, "unit": "ng·h/mL"}, {"measurement": "Vd", "setting": "[7]", "result": 29.1, "unit": "L/kg"}, {"measurement": "Activity", "setting": "[8]", "result": "Active"}, {"measurement": "Activity", "setting": "[9]", "result": "Active"}, {"measurement": "Activity", "setting": "[10]", "result": 14.53, "unit": "%"}, {"measurement": "Activity", "setting": "[11]", "result": "Non-toxic"}, {"measurement": "Activity", "setting": "[12]", "result": 10.9, "unit": "%"}, {"measurement": "AUC(0-t)", "setting": "[13]", "result": 49.1, "unit": "ng·h/mL"}, {"measurement": "Activity", "setting": "[14]", "result": "Active"}, {"measurement": "viability at 20 µM", "setting": "[15]", "result": 42.7, "unit": "%"}, {"measurement": "Activity", "setting": "[16]", "result": "inactive"}, {"measurement": "hepatic extraction ratio", "setting": "[17]", "result": 0.902}, {"measurement": "half-life", "setting": "[18]", "result": 8.46, "unit": "min"}, {"measurement": "Activity", "setting": "[19]", "result": "Non-toxic"}, {"measurement": "Activity", "setting": "[20]", "result": "inactive"}, {"measurement": "DC50", "setting": "[21]", "result": 31, "unit": "nM"}, {"measurement": "Activity", "setting": "[22]", "result": "Active"}, {"measurement": "Activity", "setting": "[23]", "result": "Active; Higher Efficacy Compared To Fulvestrant At The Same Concentration Observed"}, {"measurement": "Activity", "setting": "[24]", "result": "Active"}, {"measurement": "half-life", "setting": "[25]", "result": 3.44, "unit": "h"}, {"measurement": "Activity", "setting": "[26]", "result": "Non-toxic"}, {"measurement": "Activity", "setting": "[27]", "result": "Active"}, {"measurement": "Activity", "setting": "[28]", "result": "Active"}, {"measurement": "Activity", "setting": "[29]", "result": "Active"}, {"measurement": "Activity", "setting": "[30]", "result": "Active"}]}
